Source: PubChem BioAssay AID2061108 (Research group of Professor Matthew Todd, School of …, 2025)
The source made the active and inactive calls. How the calls were made is not given here.

Key:
Experiment in all cases: antibacterial and antifungal growth inhibition panel, profiling panel, Idler compounds, first plate, PMBN-permeabilized strains (AID 2061108)
Design in all cases: haemolysis: dose or concentration left out as unconfirmed
[1] = test system: A. baumannii ATCC 17978 growth inhibition, 100 uM; conditions: S. aureus ATCC 9144 growth inhibition; measured here: A. baumannii ATCC 17978; at 100 µM; stronger effect = higher value
[2] = test system: red blood cell haemolysis; conditions: stronger effect = higher value; dose or concentration not given here
[3] = test system: C. albicans NCPF 3281 growth inhibition, 100 uM; conditions: S. aureus ATCC 9144 growth inhibition; measured here: C. albicans NCPF 3281; at 100 µM; stronger effect = higher value
[4] = test system: M. avium growth inhibition, 10 uM; conditions: M. avium growth inhibition, 10 µM
[5] = test system: S. aureus ATCC 9144 growth inhibition, 100 uM; conditions: S. aureus ATCC 9144 growth inhibition; at 100 µM; stronger effect = higher value
[6] = test system: A. baumannii ATCC 17978 + PMBN growth inhibition, 100 uM; conditions: A. baumannii plus PMBN growth inhibition, 100 µM; stronger effect = higher value
[7] = test system: E. coli NCTC 12923 growth inhibition, 100 uM; conditions: E. coli NCTC 12923 growth inhibition, 100 µM; stronger effect = higher value
[8] = test system: E. coli NCTC 12923 + PMBN growth inhibition, 100 uM; conditions: S. aureus ATCC 9144 growth inhibition; measured here: E. coli plus PMBN; at 100 µM; stronger effect = higher value
[9] = test system: M. abscessus growth inhibition, 10 uM; conditions: S. aureus ATCC 9144 growth inhibition; measured here: M. abscessus; at 10 µM

Compound | inhibition [1] | haemolysis [2] | inhibition [3] | inhibition [4] | inhibition [5] | inhibition [6] | inhibition [7] | inhibition [8] | inhibition [9]
CC(N)C(=O)NS(=O)(=O)c1cccc(-c2cc3ncnc(N)c3s2)c1 (configuration not stated) | -14.5% | 0.129% | -29.6% | 45.2% | -35.4% (inactive) | -25.6% | -32.4% | -31.8% | -0.285%
COc1cc2nc(Nc3cc(C)[nH]n3)nc(N3CC(N(C)C)C3)c2cc1OC | 3.33% | 0.198% | 13.3% | 1.81% | 33% (inactive) | 17.5% | 5.14% | -10.1% | -0.369%
O=C(N/N=C/C1CCOCC1)c1ccncc1 | 0.357% | 1.63% | -26.5% | 4.75% | 16% (inactive) | 13.2% | -1.62% | 1.11% | -2.72%
COc1ccc(-c2nc(N3CCC(N(C)C)C3)c3cc(OC)c(OC)cc3n2)cc1 (configuration not stated) | -3.73% | 0.312% | 2.3% | 3.41% | 10.4% (inactive) | 39.9% | 6.35% | -11% | 0.735%
CCn1c(SCC(=O)N(C)c2ccccc2)nnc1-c1cn(C)nc1OC | -2.53% | 0.564% | 8.04% | -1.26% | -11.4% (inactive) | 4.29% | -41.1% | -23.5% | 0.00036%
N#Cc1ccc(NC2Cc3cccc(O)c3C2)cc1Cl (configuration not stated) | 65.2% | 0.539% | 100% | 0.34% | 100% | 101% | 25% | 101% | -0.909%
N#Cc1ccc(NC2Cc3cccc(O)c3C2)cc1C(F)(F)F (configuration not stated) | 68.5% | 2.84% | 100% | -0.176% | 99.7% | 100% | 22.3% | 100% | -0.648%
O=C(Nc1ccc(-c2nn[nH]n2)cc1)c1ccc(Oc2ccccc2)cc1 | -0.833% | -0.191% | -19.7% | -1.24% | 16.2% (inactive) | 16.4% | 0.27% | 17.2% | -0.941%
O=C(Cc1ccc(C(F)(F)F)nc1)N1Cc2cccnc2C1 | 0.241% | 4.32% | -94.2% | 0.169% | 6.84% (inactive) | 22% | -5.95% | -4.27% | -0.0961%
CS(=O)(=O)CCCNC[C@@H](O)c1ccccc1 | -0.12% | 0.325% | -65.9% | 0.187% | 14.7% (inactive) | 20.9% | -6.89% | 1.22% | -0.256%
O=C(c1ccccc1)c1ccc(NS(=O)(=O)c2cccc(Cl)c2)cc1 | 15.2% | 0.625% | -41.2% | 0.0647% | 64.6% | 80.1% | 4.05% | 86.3% | -0.368%
O=c1[nH]c(=O)c2cc(S(=O)(=O)Nc3cc(F)c(N4CCN(c5ccccn5)CC4)c(F)c3)ccc2[nH]1 | 4.58% | 0.458% | -115% | 1.7% | 10.2% (inactive) | 24% | 0.946% | 9.51% | -0.0939%
CCC(C)NS(=O)(=O)CCCOc1ccc(F)cc1 (configuration not stated) | -4.88% | -0.19% | -63.1% | -0.527% | 10.3% (inactive) | 28.8% | 0% | -9.51% | -0.898%
COc1ccc(-c2ccc(CNc3ccnc(S(=O)(=O)F)c3)s2)cc1 | 8.21% | 2.61% | 98.4% | -0.555% | 24.7% | 38% | 5.81% | 14.7% | -0.879%
Cc1cc(C)c(S(=O)(=O)N2CCC(C(=O)NCc3cccnc3)CC2)c(C)c1 | -2.53% | 0.266% | -44.9% | -0.596% | 12.6% (inactive) | 25.7% | -1.08% | 5.73% | 0.182%
Cc1cc(NC(=O)c2ccc(F)c(C(C)(C)C#N)c2)nn1C | -0.843% | 0.0361% | -51.4% | -0.0495% | 1.75% (inactive) | 22.3% | -2.97% | -1.71% | 0.104%
COc1cc2nc(Nc3cc(C)[nH]n3)nc(NC3CCN(C(=O)OC(C)(C)C)CC3)c2cc1OC | 48.6% | 2.1% | -108% | 3.94% | 99.8% | 70.4% | 14.5% | 78.8% | 0.14%
CN(C)C(=O)c1cncc(-c2cccc(C3(C#N)CC3)c2)c1 | 3.37% | 0.107% | -67.1% | 0.148% | 4.91% (inactive) | 23.7% | -5% | -3.05% | -0.0258%
C=CCSc1nc2c(c(=O)[nH]1)C(c1ccc(N(C)C)cc1)C1=C(CCCC1=O)N2 (configuration not stated) | 1.79% | -0.046% | 15.9% | 0.543% | -16.3% (inactive) | 1.16% | -40% | -12.3% | -0.888%
C=CC(=O)N1CCC[C@H](CC(=O)O)C1 | 0% | -0.0261% | -64.4% | 0.225% | 14.4% (inactive) | 22.4% | -6.76% | 5.85% | -0.00311%
COc1ccc2c(c1)nc(-c1ccc[nH]1)c1[nH]ccc12 | 34.2% | 0.0477% | 101% | 1.82% | 102% | 101% | 43.8% | 100% | 0.154%
NC(=O)C1CCN(c2nc(OCc3ccc(F)nc3)nc(N3CCn4c(nnc4C(F)(F)F)C3)n2)CC1 | -4.58% | 0.123% | -84% | 1.56% | 16.7% (inactive) | 11.7% | -2.57% | -3.54% | 0.0526%
COc1ccc2c(c1)nc(-c1c[nH]c3ccc(N4CCSCC4)cc13)c1[nH]ccc12 | 98.1% | 1.04% | 95% | 3% | 98.1% | 96.3% | 9.46% | 97% | 0.136%
